According to patent US8299119B2, “Biologically active compounds” (Bio-Active Export Pty. Ltd., priority 2005, dated 2012):
Values after ≈ are worked out from the molar mass of the structure shown.

Legend:
[1] = tested on: prostaglandin E2 production in 3T3 Swiss Albino fibroblast cells; test: Inhibition of prostaglandin E2 production in calcium ionophore stimulated cells; assay type: cell-based; set-up: Anti-inflammatory capacity, Average (PGE2 assay): unit: %; details: for IC50: range of concentrations, read-out: IC 50 values, Average (PGE2 assay); for dose response in PGE2 assay: over the concentration range tested
Description: Samples were tested for their ability to inhibit prostaglandin E2 production in cells stimulated by a calcium ionophore, compared to stimulated cells not exposed to any sample. Inhibition was tested over a range of 3 concentrations, although a dose response was not observed for most samples. This is probably because the samples are very efficient at inhibiting PGE2 production and the range of concentrations used was too narrow. The data presented are the maximal inhibition of PGE2 observed for a given sample.
3T3 Swiss Albino fibroblast cell suspension (Phenol-red free DMEM with 10% FBS and 2 mM L-glutamine) was plated out into 96-well tissue culture plates (1×10^5 cells/mL, 100 μL/well). The cells were cultured overnight at 37° C., 5% CO2. […] Cells+samples were incubated (37° C., 3 hours), before the addition of calcium ionophore A23187. Following 20 min incubation, the plate was centrifuged (1000 g, 3 min) and the supernatants were removed. Included on the plate was a positive control (aspirin; 100 μM), and DMSO control, both with and without calcium ionophore A23187.
The supernatants were diluted by serial dilution (1:500) in enzyme immunoassay (EIA) buffer, and assayed for PGE2 using the Prostaglandin E2 EIA Monoclonal Kit (Cayman Chemical; Cat No. 514010), according to manufacturers' instructions.

[2] = ORAC (oxygen radical absorbance capacity) assay; details: for Antioxidant capacity (ORAC): pure compounds, Table 13; for ORAC value: Centipeda fractions, Table 7
Description: The antioxidant capacity of the Centipeda fractions was measured using the ORAC procedure (Oxygen Radical Absorbance Capacity). A water soluble analogue of vitamin E, Trolox, was used as a reference standard, and the ORAC value is expressed as μmol of trolox equivalence (TE) per gram of sample extract.
The ORAC assay employed in this study measured the antioxidant scavenging activity in the test samples, against peroxyl radicals induced by 2,2′-azobis(2-amidinopropane)dihydrochloride (AAPH) at 37° C. Fluorescein was used as the fluorescent probe. The method used is based on that of Huang et al.^1, Huang et al.^2 and Prior et al.^3 ^1 Huang et al., 2002. Journal of Agricultural and Food Chemistry 50(16): 1815-1821.^2 Huang et al., 2002. Journal of Agricultural and Food Chemistry 50(16): 4437-4444.^3 Prior et al., 2003. Journal of Agricultural and Food Chemistry 51(11): 3273-3279.
All samples were assayed using the hydrophilic ORAC procedure in serial dilution×4 with acetone:water:acetic acid; 70:29.5:0.5 (A:W:A,) and in quadruplicate, starting with the concentration relevant to the sample, depending on the approximated antioxidant capacity from an initial screen.
Trolox, a water soluble analogue of vitamin E, was used as a reference standard. A trolox standard curve was established from trolox standards prepared at 100, 50, 25, and 12.5 μM in A:W:A.
Briefly, 10 μL fluorescein (6.0×10^−7 M), 20 μL samples/standards/control/blank (A:W:A) and 170 μL […] (20 mM) were added per well. Immediately after loading, the plate was transferred to the plate reader preset to 37° C., and the fluorescence was measured 35 times at one minute intervals. The fluorescence readings were referenced to solvent blank wells. The final ORAC values were calculated using a regression equation between the Trolox concentration and the net area under the fluorescein decay curve, and where possible were expressed as Trolox equivalents (TE) as micromoles per gram of sample.

SMILES	Anti-inflammatory capacity, Average (PGE2 assay) ([1]; 5.0 μg/mL)	IC50 ([1]; Fibroblast) [µg/mL]	Antioxidant capacity (ORAC) [2] [TE/g extract]	inhibition at 125 µg/mL ([1]; Fibroblast, sample 0.125 mg/mL, maximal inhibition observed, read-out: % inhibition of PGE2 production ± SEM) [%]	ORAC value [2]	inhibition at 62.5 µg/mL ([1]; Fibroblast, sample 0.0625 mg/mL, maximal inhibition observed, read-out: % inhibition of PGE2 production ± SEM) [%]	dose response in PGE2 assay [1]	Anti-inflammatory capacity, Average (PGE2 assay) ([1]; 100 μM, positive control)	inhibition at 10 µM ([1]; Fibroblast, 0.01 mM, positive control, read-out: % inhibition of PGE2 production ± SEM) [%]
COC(=O)C(O)C(OC(=O)/C=C/c1ccc(O)c(O)c1)C(/C=C(\O)C(=O)O)OC(=O)/C=C/c1ccc(O)c(O)c1 (stereo not drawn) [Compound 8, 4ξ,5ξ-Di-O-caffeoyl-2,6ξ-dihydroxyhept-2-en-1,7-dioic acid-7-methyl ester]	73.50	4.73 (≈ 8.44 µM)	8122						
COc1c(O)cc2oc(-c3ccc(O)cc3O)c(OC3OC(CO)C(O)C(O)C3O)c(=O)c2c1O (single isomer, unassigned) [Compound 1, 2′,4′,5,7-tetrahydroxy-6-methoxyflavone-3-O-β-glucopyranoside]	52.2	1.47 (≈ 2.97 µM)	12178	67.8 ± 2.86	3871.9 μmol TE/g of extract				
O=C(/C=C/c1ccc(O)c(O)c1)OC(/C=C(\O)C(=O)O)C(OC(=O)/C=C/c1ccc(O)c(O)c1)C(O)C(=O)O (single isomer, unassigned) [Compound 2, 4ξ,5ξ-Di-O-caffeoyl-2,6ξ-dihydroxyhept-2-en-1,7-dioic acid]	67.38	2.48 (≈ 4.54 µM)	13781		3415.1 μmol TE/g of extract	74.5 ± 8.06			
COC(=O)/C(O)=C/C(OC(=O)/C=C/c1ccc(O)c(O)c1)C(OC(=O)/C=C/c1ccc(O)c(O)c1)C(O)C(=O)O (stereo not drawn) [Compound 9, 4ξ,5ξ-Di-O-caffeoyl-2,6ξ-dihydroxyhept-2-en-1,7-dioic acid-1-methyl ester]	45.00		6822				did not exhibit a standard dose response type curve		
CC(=O)Oc1ccccc1C(=O)O [Aspirin, aspirin, reference compound]								54.6	57.4 ± 14.4
COC(=O)/C(O)=C/C(OC(=O)/C=C/c1ccc(O)c(O)c1)C(OC(=O)/C=C/c1ccc(O)c(O)c1)C(O)C(=O)OC (stereo not drawn) [Compound 10, 4ξ,5ξ-Di-O-caffeoyl-2,6ξ-dihydroxyhept-2-en-1,7-dioic acid-dimethyl ester]	73.95		3957				did not exhibit a standard dose response type curve		
